We go through 31 compounds from ChEMBL document CHEMBL1126833, “3-Substituted, 3-(4-pyridinylmethyl)-1,3-dihydro-1-phenyl-2H-indol-2-ones as acetylcholine release enhancers: synthesis and SAR” (J Med Chem, 1993).

What all share (type): functional
Assay [1] is filed under the species Rattus norvegicus. As to the kind of experiment: Ability to enhance stimulated release of AcCh from striatum region of rat brain.
For assay [2], the system named is Rattus norvegicus. The assay can be described thus: Tested for rat passive avoidance hypoxia induced amnesia at 30.0 mg/kg administered subcutaneously (p<0.05). Particulars: route subcutaneous.
Assay [3] deals with Rattus norvegicus. The assay can be described thus: Tested for rat passive avoidance hypoxia induced amnesia at 1.0 mg/kg administered subcutaneously. Particulars: route subcutaneous.
Assay [4] deals with Rattus norvegicus. As to the kind of experiment: Tested for rat passive avoidance hypoxia induced amnesia at 0.3 mg/kg administered subcutaneously. Particulars: route subcutaneous.
The subject of assay [5] is Rattus norvegicus. The assay can be described thus: Tested for rat passive avoidance hypoxia induced amnesia at 0.1 mg/kg administered subcutaneously. Conditions: route subcutaneous.
Assay [6] is filed under the species Rattus norvegicus. The assay can be described thus: Tested for rat passive avoidance hypoxia induced amnesia (no hypoxia).
Assay [7] has as its system Rattus norvegicus. The assay can be described thus: Tested for rat passive avoidance hypoxia induced amnesia at 3.0 mg/kg administered subcutaneously (p<0.025). Conditions: route subcutaneous.
For assay [8], the system named is Rattus norvegicus. The assay can be described thus: Tested for rat passive avoidance hypoxia induced amnesia at 100 mg/kg administered subcutaneously. Particulars: route subcutaneous.
Assay [9] concerns Rattus norvegicus. As to the kind of experiment: Tested for rat passive avoidance hypoxia induced amnesia at 10.0 mg/kg administered subcutaneously (p<0.025). Conditions: route subcutaneous.

Take `O=C1N(c2ccccc2)c2ccccc2C1(O)Cc1ccncc1` (centres undefined): the Release in the assay filed under Rattus norvegicus [1] was determined as 8%.

`O=C1N(c2ccccc2)c2ccccc2C1(CCCO)Cc1ccncc1` (centres undefined): in the assay filed under Rattus norvegicus [1], the Release was found to be 27%.

On to `Cl.N#CCCCCC1(Cc2ccncc2)C(=O)N(c2ccccc2)c2ccccc21` (centres undefined), for which the Release in the assay listed under Rattus norvegicus [1] amounted to 133%.

Consider `Cl.NC(=O)CCCC1(Cc2ccncc2)C(=O)N(c2ccccc2)c2ccccc21` (centres undefined), for which, in the assay filed under Rattus norvegicus [1], the Release is 26%.

Turning to `COC(=O)CCC1(Cc2ccncc2)C(=O)N(c2ccccc2)c2ccccc21.Cl` (centres undefined), the Release in the assay filed under Rattus norvegicus [1] turned out to be 51%.

As for `CCOC(=O)CCCCC1(Cc2ccncc2)C(=O)N(c2ccccc2)c2ccccc21.Cl` (centres undefined), the Release in the assay listed under Rattus norvegicus [1] was 3%.

`Cl.O=C(O)CC1(Cc2ccncc2)C(=O)N(c2ccccc2)c2ccccc21` (centres undefined): the Release in the assay filed under Rattus norvegicus [1] is recorded as -2%.

For the compound `CCCS(=O)(=O)CCCCC1(Cc2ccncc2)C(=O)N(c2ccccc2)c2ccc(Cl)cc21.Cl` (centres undefined), in the assay listed under Rattus norvegicus [1], the Release turned out to be 8%.

As for `CCCSCCCCC1(Cc2ccncc2)C(=O)N(c2ccccc2)c2ccccc21.Cl` (centres undefined), the Release in the assay listed under Rattus norvegicus [1] is 24%.

Regarding `CC(=O)CCCC1(Cc2ccncc2)C(=O)N(c2ccccc2)c2ccccc21.Cl` (centres undefined), in the assay filed under Rattus norvegicus [1], the Release was found to be 18%.

Regarding `Cl.N#CCCCCCCC1(Cc2ccncc2)C(=O)N(c2ccccc2)c2ccccc21` (centres undefined), the Release in the assay listed under Rattus norvegicus [1] worked out at 19%.

Regarding `Cl.N#CCCCC1(Cc2ccncc2)C(=O)N(c2ccccc2)c2ccccc21` (centres undefined), in the assay filed under Rattus norvegicus [1], the Release amounted to 74%.

Turning to `CC(=O)OCCCCC1(Cc2ccncc2)C(=O)N(c2ccccc2)c2ccccc21.Cl` (centres undefined), the Release in the assay listed under Rattus norvegicus [1] is on record as 27%.

Take `Cl.O=C1N(c2ccccc2)c2ccccc2C1(CCO)Cc1ccncc1` (centres undefined): the Release in the assay listed under Rattus norvegicus [1] worked out at 12%.

In the case of `Cl.O=C(CCC1(Cc2ccncc2)C(=O)N(c2ccccc2)c2ccccc21)c1ccc(F)cc1` (centres undefined), the Release in the assay listed under Rattus norvegicus [1] is 11%.

As for `Cl.N#CCCCCCC1(Cc2ccncc2)C(=O)N(c2ccccc2)c2ccccc21` (centres undefined), the Release in the assay listed under Rattus norvegicus [1] came out at 74%.

As to `CN(C)CCC1(Cc2ccncc2)C(=O)N(c2ccccc2)c2ccccc21.Cl.Cl` (centres undefined), the Release in the assay filed under Rattus norvegicus [1] turned out to be 3%.

On to `CCOC(=O)CCC1(Cc2ccncc2)C(=O)N(c2ccccc2)c2ccccc21.Cl` (centres undefined), for which the Release in the assay filed under Rattus norvegicus [1] came to 57%.

On to `Cl.O=C(CCCC1(Cc2ccncc2)C(=O)N(c2ccccc2)c2ccccc21)c1ccc(F)cc1` (centres undefined), for which the Release in the assay listed under Rattus norvegicus [1] turned out to be 29%.

Consider `Cl.N#CCC1(Cc2ccncc2)C(=O)N(c2ccccc2)c2ccccc21` (centres undefined), for which the Release in the assay filed under Rattus norvegicus [1] is on record as 11%.

In the case of `CCOC(=O)/C=C/CC1(Cc2ccncc2)C(=O)N(c2ccccc2)c2ccccc21.Cl` (centres undefined), the Release in the assay listed under Rattus norvegicus [1] is 41%.

On to `Cl.O=C(O)CCCC1(Cc2ccncc2)C(=O)N(c2ccccc2)c2ccccc21` (centres undefined), for which the Release in the assay filed under Rattus norvegicus [1] stood at 0%.

`Cl.O=C1N(c2ccccc2)c2ccccc2C1(CCCCO)Cc1ccncc1` (centres undefined): in the assay listed under Rattus norvegicus [1], the Release turned out to be 29%.

Turning to `CCOCCCCC1(Cc2ccncc2)C(=O)N(c2ccccc2)c2ccccc21.Cl` (centres undefined), the Release in the assay listed under Rattus norvegicus [1] worked out at 17%.

Take `CCOC(=O)CC1(Cc2ccncc2)C(=O)N(c2ccccc2)c2ccccc21.Cl` (centres undefined): the Release in the assay filed under Rattus norvegicus [1] amounted to 21%.

For the compound `O=C1C(Cc2ccncc2)c2ccccc2N1c1ccccc1` (centres undefined), the Release in the assay filed under Rattus norvegicus [1] was 0%.

In the case of `CCCCCCC1(Cc2ccncc2)C(=O)N(c2ccccc2)c2ccccc21` (centres undefined), the Release in the assay filed under Rattus norvegicus [1] is reported as 6%.

In the case of `CCOC(=O)CCCC1(Cc2ccncc2)C(=O)N(c2ccccc2)c2ccccc21.Cl` (racemic), in the assay listed under Rattus norvegicus [1], the Release was 109%.

For the compound `CCOC(=O)CCCC1(Cc2ccncc2)C(=O)N(c2ccccc2)c2ccccc21.Cl` (single isomer, unassigned; (-)), the Release in the assay listed under Rattus norvegicus [1] is 3%.

For `CCOC(=O)CCCC1(Cc2ccncc2)C(=O)N(c2ccccc2)c2ccccc21.Cl` (stereo in doubt; 8), the Median retension latency was found to be 201 in the assay on Rattus norvegicus [2]; 89.5 in the assay with Rattus norvegicus [3]; 37.5 in the assay on Rattus norvegicus [4]; 79.5 in the assay with Rattus norvegicus [5]; 300 in the assay filed under Rattus norvegicus [6]; 112 in the assay on Rattus norvegicus [7]. Moreover, the values for the Median retension latency in the assay with Rattus norvegicus [8] and in the assay with Rattus norvegicus [9] were 34 and 136, respectively. The Release in the assay listed under Rattus norvegicus [1] amounted to 99%.

Turning to `O=C1N(c2ccccc2)c2ccccc2C1(Cc1ccncc1)Cc1ccncc1` [LINOPIRDINE], the Release in the assay filed under Rattus norvegicus [1] amounted to 100%.
